# In patent US7119076B2, “Preventives or remedies for endometriosis or uterine myoma” (priority 2000, dated 2006):
# Tested on: endometriosis model rats
# Experiment: Therapeutic effect in endometriosis model rats (autotransplanted uterine tissue on peritoneum), histology of lesion
# Type: in vivo, Sprague-Dawley rats (female)
# Conditions: oral, lesion excised seven days after preparation; for invasion of mast cells in lesion sample: light and electron microscopy; for degree of interstitial proliferative lesion: versus control group
# Experimental: Endometriosis model rats were prepared by the method described in Michael W. Vernon et al., FERTILITY AND STERILITY, Vol. 44, No. 5, Nov. 1985. That is, endometriosis model rats were prepared as follows: Sprague-Dawley rats (female) of 8 weeks old were acclimatized for 2 weeks under 12 hours light-dark condition. From each rat, right uterine horn was excised under general anesthesia with sevoflurane and ketamine hydrochloride, and a tissue piece sizing 5 mm×5 mm was prepared therefrom. The tissue piece was subjected to autotransplantation such that the endometrium surface is attached to peritoneum.
# From 24 hours after the preparation of the endometriosis model rats, commercially available clarithromycin tablets (trademark “Clarith Tablet 50 for Children” prepared by Taisho Pharmaceutical Co., Ltd) were orally administered to the rats for 3 days. […] Clarithromycin was not administered to control animals. Seven days after the preparation of the model rats, at which the model lesion reached its peak, the peritoneum tissue including the graft up to the abdominal muscle was excised to obtain a lesion sample. From the thus obtained samples, light microscope specimens (hematoxylin-eosin staining, toluidine blue staining) and electron microscope specimens (uranium-lead double staining) were prepared, and the existence of invaded mast cells, which is a symptom of endometriosis, and the degree of interstitial proliferative lesion were observed.
# [1] = 6 mg/kg per day for 3 days from 24 hours after model preparation
# [2] = 10 mg/kg per day for 3 days from 24 hours after model preparation
Compound,invasion of mast cells in lesion sample [1],degree of interstitial proliferative lesion [1],invasion of mast cells in lesion sample [2],degree of interstitial proliferative lesion [2]
CC[C@H]1OC(=O)[C@H](C)[C@@H](O[C@H]2C[C@@](C)(OC)[C@@H](O)[C@H](C)O2)[C@H](C)[C@@H](O[C@@H]2O[C@H](C)C[C@H](N(C)C)[C@H]2O)[C@](C)(O)C[C@@H](C)/C(=N\OCOCCOC)[C@H](C)[C@@H](O)[C@]1(C)O [roxithromycin],not observed,apparently reduced,,
CC[C@H]1OC(=O)[C@H](C)[C@@H](O[C@H]2C[C@@](C)(OC)[C@@H](O)[C@H](C)O2)[C@H](C)[C@@H](O[C@@H]2O[C@H](C)C[C@H](N(C)C)[C@H]2O)[C@](C)(OC)C[C@@H](C)C(=O)[C@H](C)[C@@H](O)[C@]1(C)O [clarithromycin],,,not observed,apparently reduced
CC[C@H]1OC(=O)[C@H](C)[C@@H](O[C@H]2C[C@@](C)(OC)[C@@H](O)[C@H](C)O2)[C@H](C)[C@@H](O[C@@H]2O[C@H](C)C[C@H](N(C)C)[C@H]2O)[C@](C)(O)C[C@@H](C)CN(C)[C@H](C)[C@@H](O)[C@]1(C)O [azithromycin],,,not observed,apparently reduced
